Among the data in patent US9452990B2, “Complement pathway modulators and uses thereof” (NOVARTIS AG, priority 2012, dated 2016) are IC50 values, retold here.

Where a name gives a salt, the structure may show the parent alone.

For the first assay, the target named is human complement factor B (CVF-Bb complex) (Homo sapiens (Human), UniProt P00751). Briefly: Human Complement Factor B ELISA Assay. In kind it is biochemical.
Conditions: not given
Here is the method: Human Complement Factor B ELISA Assay
CVF-Bb complex prepared from purified cobra venom factor (1 μM), recombinant human complement factor B (expressed in drosophila cells and purified using standard methods) and human complement factor D (expressed in E. Coli, refolded and purified using standard methods). CVF-Bb complex at 3 nM concentration was incubated with test compound at various concentrations for 1 hour at room temperature in PBS pH 7.4 containing 10 mM MgCl2 and 0.05% (w/v) CHAPS. Human complement C3 substrate purified from plasma was added to a final concentration of 1 μM. After 1 hour incubation at room temperature, the enzyme reaction was stopped by addition of a cocktail of concentrated pan-protease inhibitors. The product of the reaction, C3a, was quantified by means of an enzyme-linked-immunosorbent assay. IC50 values were calculated from percentage of inhibition of CVF-Bb activity as a function of test compound concentration.
For the compound `C#Cc1ccc([C@H](N)CC(=O)N2CCN(c3nc(N)c4cc(OC)c(OC)c(F)c4n3)CC2)cc1` [Example 42, (R)-3-Amino-1-[4-(4-amino-8-fluoro-6,7-dimethoxy-quinazolin-2-yl)-piperazin-1-yl]-3-(4-ethynyl-phenyl)-propan-1-one hydrochloride], the IC50 came out at 510 nM.

The compound `CC[C@H]1CN(C(=O)C[C@@H](N)c2ccc(C(F)(F)F)cc2)CCN1c1nc(N)c2cc(OC)c(OC)c(F)c2n1` [Example 66, (R)-3-Amino-1-[(S)-4-(4-amino-8-fluoro-6,7-dimethoxy-quinazolin-2-yl)-3-ethyl-piperazin-1-yl]-3-(4-trifluoromethyl-phenyl)-propan-1-one hydrochloride] registered an IC50 of 90 nM. On the same count and under the same terms, in the case of `COc1cc2c(N)nc(N3CCN(C(=O)C[C@@H](N)c4ccc(C#N)cc4)CC3)nc2c(F)c1OC` [Example 44, 4-{(R)-1-Amino-3-[4-(4-amino-8-fluoro-6,7-dimethoxy-quinazolin-2-yl)piperazin-1-yl]-3-oxo-propyl}-benzonitrile hydrochloride] it was 10 nM. Take `CCC[C@H]1CN(C(=O)C[C@@H](N)c2ccc(C#N)cc2)CCN1c1nc(N)c2cc(OC)c(OC)c(F)c2n1` [Example 67, 4-{(R)-1-Amino-3-[(S)-4-(4-amino-8-fluoro-6,7-dimethoxy-quinazolin-2-yl)-3-propyl-piperazin-1-yl]-3-oxo-propyl}-benzonitrile hydrochloride]: it took 10 nM to reach half-maximal inhibition (IC50). Same read-out and setting: in the case of `COc1cc2c(N)nc(N3CCN(C(=O)C[C@@H](N)c4ccc(C(F)(F)F)cc4)CC3)nc2c(F)c1OC` [Example 55, (R)-3-Amino-1-[4-(4-amino-8-fluoro-6,7-dimethoxy-quinazolin-2-yl)piperazin-1-yl]-3-(4-trifluoromethyl-phenyl)-propan-1-one hydrochloride] it was 160 nM.

The assay is the same for the next values; noted with them: CVF-Bb complex 3 nM, 1 hour preincubation with compound at room temperature, human C3 substrate 1 μM, C3a quantified by ELISA; read-out: Factor B IC50.
As to `COc1cc2c(N)nc(N3CCN(C(=O)C[C@H](c4ccc(F)cc4)N4CCC4)CC3)nc2c(F)c1OC` [Example 96, (R)-1-(4-(4-amino-8-fluoro-6,7-dimethoxyquinazolin-2-yl)piperazin-1-yl)-3-(azetidin-1-yl)-3-(4-fluorophenyl)propan-1-one], the IC50 was determined as 10 nM. Same read-out and setting: in the case of `COCCOc1c(OC)cc2c(N)nc(N3CCN(C(=O)C[C@@H]4CCCCN4)CC3)nc2c1F` [Example 125, 1-{4-[4-Amino-8-fluoro-6-methoxy-7-(2-methoxy-ethoxy)-quinazolin-2-yl]-piperazin-1-yl}-2-(S)-piperidin-2-yl-ethanone] it was 9950 nM; in that of `COc1cc2c(N)nc(N3CCN(C(=O)/C=C/c4ccc(C#N)cc4)CC3)nc2c(F)c1OC` [Example 2, 4-{(E)-3-[4-(4-Amino-8-fluoro-6,7-dimethoxy-quinazolin-2-yl)-piperazin-1-yl]-3-oxo-propenyl}-benzonitrile], 16 nM; in that of `COCCOc1c(OC)cc2c(N)nc(N3CCN(C(=O)c4cc5cc(Cl)ccc5[nH]4)C[C@@H]3C)nc2c1F` [Example 30, {(S)-4-[4-Amino-8-fluoro-6-methoxy-7-(2-methoxy-ethoxy)-quinazolin-2-yl]-3-methyl-piperazin-1-yl}-(5-chloro-1H-indol-2-yl)-methanone], 70 nM. On the same count and under the same terms, in the case of `COc1cc2c(N)nc(N3CCN(C(=O)[C@@H]4CCc5ccccc5[C@@H]4N)C[C@@H]3C)nc2c(F)c1OC` [Example 105, [(S)-4-(4-Amino-8-fluoro-6,7-dimethoxy-quinazolin-2-yl)-3-methyl-piperazin-1-yl]-((1R,2R)-1-amino-1,2,3,4-tetrahydro-naphthalen-2-yl)-methanone] it was 1070 nM. On the same count and under the same terms, in the case of `COc1cc2c(N)nc(N3CCN(C(=O)C[C@@H](N)c4ccc(F)cc4)CC3)nc2c(F)c1OC` [Example 46, (R)-3-Amino-1-[4-(4-amino-8-fluoro-6,7-dimethoxy-quinazolin-2-yl)-piperazin-1-yl]-3-(4-fluoro-phenyl)-propan-1-one] it was 40 nM; in that of `COc1cc2c(N)nc(N3CCN(C(=O)C[C@@H](NC(C)C)c4ccc(C#N)cc4)CC3)nc2c(F)c1OC` [Example 95, (R)-4-(3-(4-(4-amino-8-fluoro-6,7-dimethoxyquinazolin-2-yl)piperazin-1-yl)-1-(isopropylamino)-3-oxopropyl)benzonitrile], 3 nM; in that of `CN[C@H](CC(=O)N1CCN(c2nc(N)c3cc(OC)c(OC)c(F)c3n2)CC1)c1ccc(C#N)cc1` [Example 77, (R)-4-(3-(4-(4-amino-8-fluoro-6,7-dimethoxyquinazolin-2-yl)piperazin-1-yl)-1-(methylamino)-3-oxopropyl)benzonitrile], 4 nM. As to `COCCN[C@H](CC(=O)N1CCN(c2nc(N)c3cc(OC)c(OC)c(F)c3n2)CC1)c1ccc(F)cc1` [Example 100, (R)-1-[4-(4-Amino-8-fluoro-6,7-dimethoxy-quinazolin-2-yl)-piperazin-1-yl]-3-(4-fluoro-phenyl)-3-(2-methoxy-ethylamino)-propan-1-one], the 50% inhibitory concentration (IC50) was 20 nM. On the same count and under the same terms, in the case of `COc1cc2c(N)nc(N3CCN(C(=O)/C=C/C4CCC4)C[C@@H]3C)nc2c(F)c1OC` [Example 6, (E)-1-[(S)-4-(4-Amino-8-fluoro-6,7-dimethoxy-quinazolin-2-yl)-3-methyl-piperazin-1-yl]-3-cyclobutyl-propenone] it was 190 nM; in that of `COc1cc2c(N)nc(N3CCN(C(=O)C[C@@H]4CCCNC4)C[C@@H]3c3ccccc3)nc2c(F)c1OC` [Example 122, 1-[(S)-4-(4-Amino-8-fluoro-6,7-dimethoxy-quinazolin-2-yl)-3-phenyl-piperazin-1-yl]-2-(S)-piperidin-3-yl-ethanone], 200 nM. The same measure, in the same setting: in the case of `COc1cc2c(N)nc(N3CCN(C(=O)[C@@H]4CCc5ccccc5[C@@H]4N)C[C@@H]3c3ccccc3)nc2c(F)c1OC` [Example 107, [(S)-4-(4-Amino-8-fluoro-6,7-dimethoxy-quinazolin-2-yl)-3-phenyl-piperazin-1-yl]-((1R,2R)-1-amino-1,2,3,4-tetrahydro-naphthalen-2-yl)-methanone] it was 240 nM; in that of `COc1cc2c(N)nc(N3CCN(C(=O)C[C@@H](N)c4ccc(F)cc4)CC3)nc2c(Cl)c1OC` [Example 82, (R)-3-Amino-1-(4-(4-amino-8-chloro-6,7-dimethoxyquinazolin-2-yl)piperazin-1-yl)-3-(4-fluorophenyl)propan-1-one], 1020 nM; in that of `CCC[C@H]1CN(C(=O)c2cc3cc(C#N)ccc3[nH]2)CCN1c1nc(N)c2cc(OC)c(OC)c(F)c2n1` [Example 26, 2-[(S)-4-(4-Amino-8-fluoro-6,7-dimethoxy-quinazolin-2-yl)-3-propyl-piperazine-1-carbonyl]-1H-indole-5-carbonitrile], 11 nM. Same read-out and setting: in the case of `COc1cc2c(N)nc(N3CCN(C(=O)C[C@@H](NC(C)C)c4ccc(F)cc4)CC3)nc2c(F)c1OC` [Example 89, (R)-1-[4-(4-Amino-8-fluoro-6,7-dimethoxy-quinazolin-2-yl)-piperazin-1-yl]-3-(4-fluoro-phenyl)-3-isopropylamino-propan-1-one] it was 30 nM.

Regarding `COCCOc1c(OC)cc2c(N)nc(N3CCN(C(=O)C[C@@H]4CCCN4)CC3)nc2c1F` [Example 124, 1-{4-[4-Amino-8-fluoro-6-methoxy-7-(2-methoxy-ethoxy)-quinazolin-2-yl]-piperazin-1-yl}-2-(S)-pyrrolidin-2-yl-ethanone], the concentration for half-maximal inhibition (IC50) worked out at 5950 nM. As for `COc1cc2c(N)nc(N3CCN(C(=O)C[C@@H](N)c4ccc(C)cc4)CC3)nc2c(F)c1OC` [Example 41, (R)-3-Amino-1-[4-(4-amino-8-fluoro-6,7-dimethoxy-quinazolin-2-yl)-piperazin-1-yl]-3-p-tolyl-propan-1-one], the half-inhibitory concentration (IC50) amounted to 70 nM.

With `COC[C@H]1CN(C(=O)/C=C/C2CC2)CCN1c1nc(N)c2cc(OC)c(OC)c(F)c2n1` [Example 3], the IC50 is 2060 nM. On the same count and under the same terms, in the case of `COc1cc2c(N)nc(N3CCN(C(=O)CC4NCCc5cc(F)ccc54)CC3)nc2c(F)c1OC` (stereo not shown) [Example 128, 1-[4-(4-Amino-8-fluoro-6,7-dimethoxy-quinazolin-2-yl)-piperazin-1-yl]-2-(6-fluoro-1,2,3,4-tetrahydro-isoquinolin-1-yl)-ethanone] it was 120 nM; in that of `COc1cc2c(N)nc(N3C[C@@H](C)N(C(=O)C[C@@H](N)c4ccc(F)cc4)C[C@@H]3C)nc2c(F)c1OC` [Example 74, (R)-3-amino-1-[(2R,5S)-4-(4-amino-8-fluoro-6,7-dimethoxy-quinazolin-2-yl)-2,5-dimethyl-piperazin-1-yl]-3-(4-fluorophenyl)-propan-1-one], 50 nM; in that of `CN[C@H](CC(=O)N1CCN(c2nc(N)c3cc(OC)c(OC)c(F)c3n2)CC1)C1CCCCC1` [Example 78, (R)-1-(4-(4-amino-8-fluoro-6,7-dimethoxyquinazolin-2-yl)piperazin-1-yl)-3-cyclohexyl-3-(methylamino)propan-1-one], 80 nM. Take `COc1cc2c(N)nc(N3CCN(C(=O)c4cc5c(OC)cccc5[nH]4)CC3)nc2c(F)c1OC` [Example 20, [4-(4-Amino-8-fluoro-6,7-dimethoxy-quinazolin-2-yl)-piperazin-1-yl]-(4-methoxy-1H-indol-2-yl)-methanone]: the IC50 is 9630 nM. The same measure, in the same setting: in the case of `COc1cc2c(N)nc(N3CCN(C(=O)c4cc5cc(O)ccc5[nH]4)CC3)nc2c(F)c1OC` [Example 19, [4-(4-Amino-8-fluoro-6,7-dimethoxy-quinazolin-2-yl)-piperazin-1-yl]-(5-hydroxy-1H-indol-2-yl)-methanone] it was 80 nM.
